These results are taken from ChEMBL document CHEMBL4665844, “HDAC-Bax Multiple Ligands Enhance Bax-Dependent Apoptosis in HeLa Cells” (J Med Chem, 2020).

In one assay the target is Histone deacetylase. Kind of assay: Inhibition of HDAC in human HeLa nuclear extract using Boc-Lys(acetyl)-AMC or Boc-Lys (triflouroacetyl)-AMC as substrate preincubated for 5 mins followed by substrate addition and measured after 30 mins by fluorescence assay. It is filed as subcellular, Nucleus.
For assay [1], the target named is T1, Apoptosis regulator BAX (Homo sapiens, UniProt Q07812). Kind of assay: Binding affinity to recombinant human full length His-tagged BAX expressed in Escherichia coli BL21 (DE3) cells preincubated for 30 min followed by FITC-BIM addition and measured after 20 mins by fluorescence polarization assay.
Assay [2] deals with HeLa. Kind of assay: Up regulation of BAX protein in human HeLa cells at 0.3 to 3 uM after 6 to 12 hrs by Western blot analysis. It is filed as functional, cell-based. Conditions: dose microM 0.3-3, time hrs 6-12. For orientation: Immunoblotting shows a protein as a band on a membrane.
The test system of assay [3] is HeLa. The assay can be described thus: induction of apoptosis in siRNA-induced BAX knock down human HeLa cells at 0.3 to 3 uM after 48 hr by annexin V FITC and propidium iodide staining based flow cytometric analysis. Conditions: dose microM 0.3-3, time 48.0 hrs. It is filed as functional, cell-based. Background: A flow cytometer gives signals particle by particle.

The test system of assay [4] is HeLa. Kind of assay: Induction of apoptosis in human HeLA cells at 3 uM after 48 hr by annexin V FITC and propidium iodide staining based flow cytometric analysis. The format is functional.
Assay [5] concerns HeLa. Kind of assay: Induction of mitochondrial membrane potential loss in human HeLa cells at 1 to 3 uM after 24 hrs by TMRE staining based fluorescence assay. The format is functional, cell-based. Conditions: dose microM 1-3, time 24.0 hrs.
Assay [6] concerns HeLa. The assay can be described thus: Induction of apoptosis in human HeLA cells at 0.3 to 1 uM after 48 hr by annexin V FITC and propidium iodide staining based flow cytometric analysis. Conditions: dose microM 0.3-1, time 48.0 hrs. It is filed as functional, cell-based.
The next assay addresses Histone deacetylase 1 (Homo sapiens, UniProt Q13547). The assay can be described thus: Inhibition of HDAC1 (unknown origin) in using Boc-Lys(acetyl)-AMC or Boc-Lys (triflouroacetyl)-AMC as substrate preincubated for 5 mins followed by substrate addition and measured after 30 mins by fluorescence assay.
The target in a further assay is Bcl-2-like protein 1 (Homo sapiens, UniProt Q07817). Kind of assay: Binding affinity to full length His-tagged Bcl-xl (unknown origin) preincubated for 30 min followed by 5-FAM Bid-BH3 addition and measured after 20 mins by fluorescence polarization assay.
Assay [7] relates to HeLa. The assay can be described thus: Induction of apoptosis in human HeLa cells assessed as cellular shrinkage at 1 uM after 6 to 36 hrs by fluorescence microscopic method. It is filed as functional, cell-based. Conditions: time hrs 6-36.
The subject of assay [8] is HeLa. The assay can be described thus: Induction of apoptosis in human HeLA cells at 1 uM after 48 hr by laser confocal microscopic based TUNEL assay. It is filed as functional, cell-based.
The test system of assay [9] is HeLa. Kind of assay: Induction of apoptosis in human HeLa cells assessed as formation of apoptotic bodies at 1 uM after 6 to 36 hrs by fluorescence microscopic method. It is filed as functional, cell-based. Conditions: time hrs 6-36.
The next assay concerns the target Histone deacetylase 2 (Homo sapiens, UniProt Q92769). The assay can be described thus: Inhibition of HDAC2 (unknown origin) in using Boc-Lys(acetyl)-AMC or Boc-Lys (triflouroacetyl)-AMC as substrate preincubated for 5 mins followed by substrate addition and measured after 30 mins by fluorescence assay.
For another assay, the target named is T2, Histone deacetylase 8 (Homo sapiens, UniProt Q9BY41).
T2 sequence (Q9BY41 whole entry): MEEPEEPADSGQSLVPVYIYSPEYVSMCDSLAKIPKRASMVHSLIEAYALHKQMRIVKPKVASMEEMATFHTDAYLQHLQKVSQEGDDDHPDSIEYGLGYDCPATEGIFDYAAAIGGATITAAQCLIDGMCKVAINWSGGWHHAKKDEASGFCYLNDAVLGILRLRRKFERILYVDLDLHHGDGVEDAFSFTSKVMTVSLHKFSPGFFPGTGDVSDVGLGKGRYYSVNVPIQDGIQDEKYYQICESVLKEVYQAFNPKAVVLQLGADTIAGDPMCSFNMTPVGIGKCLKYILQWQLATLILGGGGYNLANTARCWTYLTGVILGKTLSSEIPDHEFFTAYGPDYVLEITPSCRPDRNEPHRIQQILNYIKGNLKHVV
The assay can be described thus: Inhibition of HDAC8 (unknown origin) in using Boc-Lys(acetyl)-AMC or Boc-Lys (triflouroacetyl)-AMC as substrate preincubated for 5 mins followed by substrate addition and measured after 30 mins by fluorescence assay.

Assay [10] concerns the target T1, Apoptosis regulator BAX. The assay can be described thus: Activation of BAX in human HeLa cells assessed as confirmation activation at Bax6A7 after 6 to 12 hrs by immunoprecipitation assay. The following applies: filed as activator, dose microM 0.3-3, time hrs 6-12. The format is cell-based.
Assay [11] deals with Induced myeloid leukemia cell differentiation protein Mcl-1 (Homo sapiens, UniProt Q07820). Kind of assay: Binding affinity to full length His-tagged Mcl1 (unknown origin) preincubated for 30 min followed by 5-FAM Bid-BH3 addition and measured after 20 mins by fluorescence polarization assay. On the technique in general: Fluorescence polarisation rises when a labelled molecule tumbles more slowly, as on binding a larger partner.

The test system of assay [12] is HeLa. The assay can be described thus: Induction of apoptosis in human HeLa cells assessed as membrane blebbing at 1 uM after 6 to 36 hrs by fluorescence microscopic method. The format is functional, cell-based. Conditions: time hrs 6-36.
The subject of a further assay is L02. Kind of assay: Cytotoxicity against human L02 cells assessed as reduction in cell viability after 48 hrs by MTT assay. It is filed as ADME, cell-based. Conditions: L02, 48 h.
Assay [13] relates to HeLa. The assay can be described thus: Potency index, ratio of IC50 for SAHA to test compound IC50 for antiproliferation activity against human HeLa cells. It is filed as functional.
The test system of assay [14] is HeLa. Kind of assay: Induction of mitochondrial membrane potential loss in human HeLa cells after 24 hrs by TMRE staining based fluorescence assay. It is filed as functional, cell-based. The following applies: dose microM 1-3, time 24.0 hrs.
The test system of assay [15] is HeLa. Kind of assay: induction of apoptosis in siRNA-induced BAX knock down human HeLa cells at 3 uM after 48 hr by annexin V FITC and propidium iodide staining based flow cytometric analysis. The format is functional.
Assay [16] relates to HeLa. Kind of assay: Antiproliferative activity against siRNA-induced BAX knock down human HeLa cells after 48 hrs by MTT assay. The format is functional, cell-based.
The target of assay [17] is Apoptosis regulator Bcl-2 (Homo sapiens, UniProt P10415). Kind of assay: Binding affinity to full length His-tagged Bcl2 (unknown origin) preincubated for 30 min followed by 5-FAM Bid-BH3 addition and measured after 20 mins by fluorescence polarization assay.
Assay [18] has as its system HeLa. Kind of assay: Potency index, ratio of IC50 for BSTA1 to test compound IC50 for antiproliferation activity against human HeLa cells. The format is functional.
Assay [19] has as its system HeLa. The assay can be described thus: Antiproliferative activity against human HeLa cells assessed as reduction in cell viability after 48 hrs by MTT assay. The format is functional, cell-based.
The test system of assay [20] is HeLa. Kind of assay: Synergistic antiproliferative activity against human HeLa cells assessed as assessed as reduction in cell viability after 48 hrs in presence of SAHA by MTT assay. The format is functional, cell-based.

Activity calls are given as the source filed them. The calls are words filed in the database; no cut-off is given here.

T1 sequence (Q07812 whole entry): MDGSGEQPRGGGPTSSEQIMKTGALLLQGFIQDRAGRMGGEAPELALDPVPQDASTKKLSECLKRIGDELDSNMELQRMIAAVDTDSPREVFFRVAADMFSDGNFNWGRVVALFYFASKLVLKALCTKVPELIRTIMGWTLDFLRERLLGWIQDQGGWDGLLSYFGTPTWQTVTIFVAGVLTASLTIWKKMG
Sequence of Bcl-2-like protein 1 (Q07817 whole entry): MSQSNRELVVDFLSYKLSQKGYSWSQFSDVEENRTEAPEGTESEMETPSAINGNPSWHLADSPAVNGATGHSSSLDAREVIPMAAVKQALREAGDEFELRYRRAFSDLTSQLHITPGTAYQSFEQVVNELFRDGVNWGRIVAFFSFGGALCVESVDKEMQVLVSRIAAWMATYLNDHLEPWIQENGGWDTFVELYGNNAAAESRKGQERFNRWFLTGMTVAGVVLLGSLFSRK
Sequence of Induced myeloid leukemia cell differentiation protein Mcl-1 (Q07820 whole entry): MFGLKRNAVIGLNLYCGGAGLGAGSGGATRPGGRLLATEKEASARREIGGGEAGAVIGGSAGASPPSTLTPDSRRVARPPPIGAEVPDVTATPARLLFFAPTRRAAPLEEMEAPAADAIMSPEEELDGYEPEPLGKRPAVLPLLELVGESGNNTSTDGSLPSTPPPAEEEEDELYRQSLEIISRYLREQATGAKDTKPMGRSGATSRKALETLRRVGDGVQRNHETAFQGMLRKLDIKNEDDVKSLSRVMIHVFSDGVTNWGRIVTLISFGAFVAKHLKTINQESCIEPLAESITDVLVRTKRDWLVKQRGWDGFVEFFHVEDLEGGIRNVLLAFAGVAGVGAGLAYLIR
Sequence of Apoptosis regulator Bcl-2 (P10415 whole entry): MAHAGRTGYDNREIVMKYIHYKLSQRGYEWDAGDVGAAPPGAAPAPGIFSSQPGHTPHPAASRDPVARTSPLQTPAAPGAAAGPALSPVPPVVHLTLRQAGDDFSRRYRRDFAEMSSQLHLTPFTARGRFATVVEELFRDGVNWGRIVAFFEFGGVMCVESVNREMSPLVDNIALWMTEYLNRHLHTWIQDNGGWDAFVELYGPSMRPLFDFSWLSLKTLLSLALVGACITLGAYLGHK
Sequence of Histone deacetylase 2 (Q92769 whole entry): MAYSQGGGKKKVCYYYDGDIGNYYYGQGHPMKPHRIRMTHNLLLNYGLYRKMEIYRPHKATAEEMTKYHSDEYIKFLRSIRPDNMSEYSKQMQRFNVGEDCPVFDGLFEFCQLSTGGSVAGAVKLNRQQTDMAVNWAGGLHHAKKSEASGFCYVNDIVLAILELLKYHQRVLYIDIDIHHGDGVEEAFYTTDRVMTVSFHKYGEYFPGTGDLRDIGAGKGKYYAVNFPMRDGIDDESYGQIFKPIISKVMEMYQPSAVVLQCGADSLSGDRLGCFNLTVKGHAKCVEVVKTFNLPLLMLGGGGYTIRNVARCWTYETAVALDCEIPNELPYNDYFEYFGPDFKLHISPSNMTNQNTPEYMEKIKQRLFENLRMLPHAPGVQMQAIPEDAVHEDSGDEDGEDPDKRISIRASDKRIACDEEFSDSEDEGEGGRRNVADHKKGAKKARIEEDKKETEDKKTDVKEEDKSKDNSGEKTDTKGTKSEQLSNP
Sequence of Histone deacetylase 1 (Q13547 whole entry): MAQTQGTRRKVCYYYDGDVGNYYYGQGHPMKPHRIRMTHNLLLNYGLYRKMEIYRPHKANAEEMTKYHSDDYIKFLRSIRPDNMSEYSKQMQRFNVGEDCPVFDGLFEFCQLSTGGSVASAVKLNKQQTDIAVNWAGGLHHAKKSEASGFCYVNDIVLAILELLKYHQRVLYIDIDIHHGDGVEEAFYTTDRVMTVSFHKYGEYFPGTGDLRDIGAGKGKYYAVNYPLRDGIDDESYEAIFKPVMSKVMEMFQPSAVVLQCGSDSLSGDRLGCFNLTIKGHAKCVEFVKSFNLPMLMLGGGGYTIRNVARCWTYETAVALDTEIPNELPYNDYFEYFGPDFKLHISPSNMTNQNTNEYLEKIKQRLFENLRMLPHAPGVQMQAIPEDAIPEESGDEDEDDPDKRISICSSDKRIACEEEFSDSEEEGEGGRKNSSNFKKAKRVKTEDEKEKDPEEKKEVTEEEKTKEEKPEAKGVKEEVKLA

For orientation: IC50 means the concentration that inhibits the measured activity by half. What is called EC50 is the concentration giving half of the maximal effect. On Histone deacetylase, `O=C(O)c1ccc(-c2csc(N3N=C(c4ccccc4)/C(=N/Nc4nccs4)C3=O)n2)cc1` had an IC50 of more than 10000 nM. The EC50 on Apoptosis regulator BAX [1] was 704 nM.

`O=C(CCCCCOc1ccc(-c2csc(N3N=C(c4ccccc4)/C(=N/Nc4nccs4)C3=O)n2)cc1)NO` gave an IC50 at Histone deacetylase of 75.8 nM. For the same compound, at Apoptosis regulator BAX [1], the EC50 was 925 nM.

On to `O=C(CCCCCCNC(=O)c1ccc(-c2csc(N3N=C(c4ccccc4)/C(=N/Nc4nccs4)C3=O)n2)cc1)NO`, for which the IC50 against Histone deacetylase amounted to 98.8 nM. Besides, the EC50 at Apoptosis regulator BAX [1] came out at 1140 nM.

`O=C(CCCCCCOc1ccc(-c2csc(N3N=C(c4ccccc4)/C(=N/Nc4nccs4)C3=O)n2)cc1)NO` gave an IC50 against Histone deacetylase of 40.8 nM. For the same compound, the EC50 on Apoptosis regulator BAX [1] stood at 856 nM.

With `O=C(CCCCNC(=O)c1ccc(-c2csc(N3N=C(c4ccccc4)/C(=N/Nc4nccs4)C3=O)n2)cc1)NO`, the IC50 against Histone deacetylase is given as 207.4 nM. Also, the EC50 on Apoptosis regulator BAX [1] was found to be 719 nM.

`O=C(NO)c1ccc(COc2ccc(-c3csc(N4N=C(c5ccccc5)/C(=N/Nc5nccs5)C4=O)n3)cc2)cc1` had a half-maximal inhibitory concentration (IC50) on Histone deacetylase of 85 nM. Moreover, at Apoptosis regulator BAX [1], the 50% effective concentration (EC50) was 538 nM.

As for `O=C(/C=C/c1ccc(COc2ccc(-c3csc(N4N=C(c5ccccc5)/C(=N/Nc5nccs5)C4=O)n3)cc2)cc1)NO`, the IC50 against Histone deacetylase is given as 243.7 nM. The concentration for a half-maximal effect (EC50) on Apoptosis regulator BAX [1] was found to be 992 nM.

With `O=C(CCCCOc1ccc(-c2csc(N3N=C(c4ccccc4)/C(=N/Nc4nccs4)C3=O)n2)cc1)NO`, the IC50 against Histone deacetylase was 118.5 nM. On Apoptosis regulator BAX [1], the EC50 worked out at 967 nM.

For `O=C(CCCCCCCOc1ccc(-c2csc(N3N=C(c4ccccc4)/C(=N/Nc4nccs4)C3=O)n2)cc1)NO`, the IC50 on Histone deacetylase is reported as 135.2 nM. Besides, at Apoptosis regulator BAX [1], the EC50 came to 532 nM.

`O=C(CCCCCNC(=O)c1ccc(-c2csc(N3N=C(c4ccccc4)/C(=N/Nc4nccs4)C3=O)n2)cc1)NO`: the IC50 at Histone deacetylase is recorded as 87.5 nM. For the same compound, the EC50 on Apoptosis regulator BAX [1] is 809 nM.

For the compound `O=C(CCCCCCC(=O)Nc1ccccc1)NO` [VORINOSTAT], the result with HeLa [2] and in the assay on HeLa [5] was Active. Moreover, the outcome in the assay on HeLa [3] was inactive. Further, at Apoptosis regulator BAX [1], the EC50 was more than 10000 nM. In addition, in the assay on HeLa [4], the Activity is listed as 47.1%.

`O=C(CCCOc1ccc(-c2csc(N3N=C(c4ccccc4)/C(=N/Nc4nccs4)C3=O)n2)cc1)NO` yielded an IC50 on Histone deacetylase of 674.8 nM. Also, the EC50 on Apoptosis regulator BAX [1] came out at 725 nM.

On to `O=C(/C=C/c1ccc(CNC(=O)c2ccc(-c3csc(N4N=C(c5ccccc5)/C(=N/Nc5nccs5)C4=O)n3)cc2)cc1)NO`, for which, on Histone deacetylase, the IC50 was found to be 1341.5 nM. Besides, the EC50 on Apoptosis regulator BAX [1] came out at 2220 nM.

As to `O=C(NO)c1ccc(CNC(=O)c2ccc(-c3csc(N4N=C(c5ccccc5)/C(=N/Nc5nccs5)C4=O)n3)cc2)cc1`, the outcome in the assay with HeLa [6], in the assay on HeLa [7], in the assay with HeLa [8], in the assay on HeLa [9], with HeLa [12] and with HeLa [2] was Active. In addition, the IC50 on Histone deacetylase 1 came to 66 nM; against Histone deacetylase it was 62.8 nM; against Histone deacetylase 2, 198 nM; against Histone deacetylase 8 it was 1090 nM; in the assay on L02, 65200 nM; in the assay with HeLa [16], 7550 nM. Further, in the assay on HeLa [19], the IC50 turned out to be 860 nM. Further, the EC50 is more than 10000 nM at Bcl-2-like protein 1, more than 10000 nM in assay [11], 393 nM on Apoptosis regulator BAX [1] and more than 10000 nM in [17]. Besides, the Activity result on Apoptosis regulator BAX [10] was “Dose-dependent effect”; in the assay with HeLa [14] it was “Dose-dependent effect”; with HeLa [4], 60%; in the assay with HeLa [15] it was 14.8%. The “Ratio IC50” value was 15 with HeLa [13] and 3 in the assay with HeLa [18].

Take `O=C1/C(=N\Nc2nccs2)C(c2ccccc2)=NN1c1nc(-c2ccccc2)cs1`: the concentration giving a half-maximal response (EC50) (on Bcl-2-like protein 1; in assay [11]; in assay [17]) was more than 10000 nM in each case. Besides, the IC50 against Histone deacetylase was more than 10000 nM; with HeLa [20], 810 nM; in the assay with L02, 54200 nM; in the assay with HeLa [16], more than 20000 nM; with HeLa [19], 11500 nM. The result in the assay on HeLa [3] was inactive. The compound further displayed an Activity with HeLa [4] of 19.2%. Further, the outcome in the assay with HeLa [5] was Active.

`O=C(NO)c1ccc(-c2csc(N3N=C(c4ccccc4)/C(=N/Nc4nccs4)C3=O)n2)cc1` returned an IC50 against Histone deacetylase of 577.4 nM. Further, the EC50 on Apoptosis regulator BAX [1] amounted to 874 nM.
